Tests used:
Assay type in all cases: cell-based
[1] = biological target: T1, von Hippel-Lindau disease tumor suppressor/Tyrosine-protein kinase ABL1 (Homo sapiens, UniProt P00519+P40337); assay: Protac activity at VHL/c-ABL in human K562 cells assessed as induction of c-ABL protein degradation at 1 uM incubated for 24 hrs by immunoblot method relative to control
Target sequence in this assay (P00519 whole entry, looked up): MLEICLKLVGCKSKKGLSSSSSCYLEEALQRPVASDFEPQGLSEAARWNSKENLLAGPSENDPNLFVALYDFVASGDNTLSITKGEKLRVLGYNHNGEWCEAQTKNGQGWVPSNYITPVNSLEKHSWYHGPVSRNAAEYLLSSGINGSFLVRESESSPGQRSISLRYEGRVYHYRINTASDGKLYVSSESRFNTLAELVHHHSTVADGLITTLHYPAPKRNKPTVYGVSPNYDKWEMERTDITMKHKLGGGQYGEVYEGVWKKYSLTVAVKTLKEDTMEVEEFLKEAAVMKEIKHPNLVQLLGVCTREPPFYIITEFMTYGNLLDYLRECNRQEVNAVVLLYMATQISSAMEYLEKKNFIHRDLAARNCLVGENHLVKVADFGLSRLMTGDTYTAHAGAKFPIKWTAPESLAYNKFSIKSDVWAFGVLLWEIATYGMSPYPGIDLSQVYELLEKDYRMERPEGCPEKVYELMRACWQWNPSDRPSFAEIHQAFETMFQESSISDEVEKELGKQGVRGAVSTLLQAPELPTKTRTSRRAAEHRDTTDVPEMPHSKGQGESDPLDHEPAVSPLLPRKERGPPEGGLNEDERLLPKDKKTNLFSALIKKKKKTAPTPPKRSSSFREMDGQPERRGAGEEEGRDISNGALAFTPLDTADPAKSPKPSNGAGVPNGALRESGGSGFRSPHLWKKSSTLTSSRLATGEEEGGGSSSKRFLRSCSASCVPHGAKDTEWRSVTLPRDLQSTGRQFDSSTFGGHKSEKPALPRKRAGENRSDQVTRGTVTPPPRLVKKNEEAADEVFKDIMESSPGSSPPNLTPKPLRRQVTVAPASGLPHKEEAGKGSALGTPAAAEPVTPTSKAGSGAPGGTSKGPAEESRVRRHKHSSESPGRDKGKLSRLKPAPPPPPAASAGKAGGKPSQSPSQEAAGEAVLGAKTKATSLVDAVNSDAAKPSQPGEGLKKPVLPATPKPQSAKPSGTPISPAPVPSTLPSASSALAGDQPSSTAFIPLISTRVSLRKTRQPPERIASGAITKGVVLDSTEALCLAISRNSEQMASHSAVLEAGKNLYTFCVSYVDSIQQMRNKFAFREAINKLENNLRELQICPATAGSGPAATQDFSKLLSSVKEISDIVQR
Target sequence in this assay (P40337 whole entry, looked up): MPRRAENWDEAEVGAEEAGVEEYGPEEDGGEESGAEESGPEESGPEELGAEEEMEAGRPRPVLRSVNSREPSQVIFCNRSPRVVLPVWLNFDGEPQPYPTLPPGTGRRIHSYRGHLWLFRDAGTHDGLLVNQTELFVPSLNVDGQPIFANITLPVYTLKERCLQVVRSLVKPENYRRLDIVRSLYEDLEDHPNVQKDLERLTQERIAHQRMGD

[2] = biological target: T1, von Hippel-Lindau disease tumor suppressor/Tyrosine-protein kinase ABL1; assay: Protac activity at VHL/c-ABL in human K562 cells assessed as induction of c-ABL protein degradation incubated for 24 hrs by immunoblot method
Target sequence in this assay (P00519 whole entry): as the sequence (P00519 whole entry, looked up) above
Target sequence in this assay (P40337 whole entry): as the sequence (P40337 whole entry, looked up) above

[3] = biological target: T2, Protein cereblon/Peptidyl-prolyl cis-trans isomerase FKBP1A (Homo sapiens, UniProt P62942+Q96SW2); assay: Protac activity at CRBN/FKBP12 in human Jurkat cells assessed as induction of FKBP12 protein degradation incubated for 12 hrs by immunoblot method
Target sequence in this assay (P62942 whole entry): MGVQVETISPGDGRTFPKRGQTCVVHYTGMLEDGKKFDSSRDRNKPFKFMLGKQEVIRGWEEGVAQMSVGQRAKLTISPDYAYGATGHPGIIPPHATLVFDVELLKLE
Target sequence in this assay (Q96SW2 whole entry): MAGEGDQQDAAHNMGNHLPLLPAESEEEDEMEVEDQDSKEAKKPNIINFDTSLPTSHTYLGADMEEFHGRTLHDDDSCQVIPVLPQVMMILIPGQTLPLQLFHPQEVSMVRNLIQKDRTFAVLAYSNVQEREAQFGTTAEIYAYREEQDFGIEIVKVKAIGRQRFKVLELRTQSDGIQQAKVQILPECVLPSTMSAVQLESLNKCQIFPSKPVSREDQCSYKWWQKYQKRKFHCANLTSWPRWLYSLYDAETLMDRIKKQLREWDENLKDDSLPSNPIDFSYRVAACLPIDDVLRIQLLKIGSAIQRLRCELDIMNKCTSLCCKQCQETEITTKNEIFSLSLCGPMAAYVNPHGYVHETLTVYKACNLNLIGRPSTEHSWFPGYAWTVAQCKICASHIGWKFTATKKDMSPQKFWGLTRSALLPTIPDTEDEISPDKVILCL

[4] = biological target: T2, Protein cereblon/Peptidyl-prolyl cis-trans isomerase FKBP1A; assay: Protac activity at CRBN/FKBP12 in human Jurkat cells assessed as induction of FKBP12 protein degradation up to 1000 nM incubated for 12 hrs by immunoblot method relative to control
Target sequence in this assay (P62942 2-108 limits assumed): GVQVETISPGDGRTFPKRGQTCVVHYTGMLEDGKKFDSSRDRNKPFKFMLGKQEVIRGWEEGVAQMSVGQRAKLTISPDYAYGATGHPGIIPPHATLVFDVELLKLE
Target sequence in this assay (Q96SW2 whole entry partner): as the sequence (Q96SW2 whole entry) above

| SMILES | Emax [1] [%] | DC50 [2] [nM] | DC50 [3] [nM] | Emax [4] [%] |
| --- | --- | --- | --- | --- |
| Cc1nc(Nc2ncc(C(=O)Nc3c(C)cccc3Cl)s2)cc(N2CCN(CCCCCCOCCOCCOCCCCCC(=O)N[C@H](C(=O)N3C[C@H](O)C[C@H]3C(=O)NCc3ccc(-c4scnc4C)cc3)C(C)(C)C)CC2)n1 | > 65 | 1000 | – | – |
| CO[C@H]1C[C@@H]2CC[C@@H](C)[C@@](O)(O2)C(=O)C(=O)N2CCCC[C@H]2C(=O)O[C@H]([C@H](C)C[C@@H]2CC[C@@H](OCCOCc3cn(CCOCCOCCNc4cccc5c4C(=O)N(C4CCC(=O)NC4=O)C5=O)nn3)[C@H](OC)C2)CC(=O)[C@H](C)/C=C(\C)[C@@H](O)[C@@H](OC)C(=O)[C@H](C)C[C@H](C)/C=C/C=C/C=C/1C (some centres undefined) | – | – | 0.3 | > 95 |
